Source: patent US20120093876A1, “Ophthalmic Formulations, Methods Of Manufacture And Methods of Normalizing Meibomian Gland Secretions” (Aciex, Inc., priority 2010, published 2012)
Where a name gives a salt, the structure may show the parent alone.

Assays:
[1] = Degradation after e-beam irradiation; type: physicochemical; settings: suspended in light mineral oil; single-point testing following irradiation
Description: (§1) The purpose of this study was to investigate the feasibility of formulating Minocycline HCl in a ‘gelment’ with a medicated swab container closure. Specifically, formulation feasibility and stability with hydrophilic bases (PEG 400, propylene glycol, glycerol) investigated. Glycerin was unacceptable from a comfort perspective. […] (Following 3 weeks at 25/40, epi-minocycline was 20.7% for PEG 400 base and 2.9% for propylene glycol base.) Degradation was not detected following e-beam irradiation of Minocycline suspended in light mineral oil (single-point testing performed following irradiation—no stability evaluation).

[2] = Batch uniformity and stability of micronized and unmicronized oil and ointment formulations; type: physicochemical; settings: jetmilling or cryomilling; 2 batches of drug substance
Experimental: Two Minocycline HCl drug substance batches were micronized (by jetmilling and cryomilling) and evaluated for chemical properties post-micronization. Jetmilled, cryomilled, and unmicronized oil and ointment formulations were evaluated for batch uniformity and stability.
Oil formulations were 100% oil and ointments were 100% petrolatum. […]. […] evaluated with respect to solubility in light mineral oil.
[…]. The oil suspensions in this study provided consistent T0 results, unlike the earlier oil formulations with unmicronized Minocycline HCl.

[3] = Excipient compatibility stability screen, minocycline quantitated by HPLC; settings: in mineral oil, relative to castor and olive oil
[4] = Comfort of hydrophilic excipient bases; type: in vivo; settings: hydrophilic base
Description: as §1

Degradation following e-beam irradiation [1] | Change in assay following micronization [2] | Stability (degree of epimerization) in excipient [3] | Comfort [4] | SMILES
not detected | No change | greatest stability | – | CN(C)c1ccc(O)c2c1C[C@H]1C[C@H]3[C@H](N(C)C)C(O)=C(C(N)=O)C(=O)[C@@]3(O)C(O)=C1C2=O [Minocycline HCl]
– | – | – | unacceptable | OCC(O)CO [Glycerin]
